From patent publication US10077261B2, “Imidazolin-5-one derivative useful as FASN inhibitors for the treatment of cancer” (Janssen Pharmaceutica NV, priority 2012, dated 2018)

Biological target: T1, hFASN enzyme (full length) (Homo sapiens, UniProt P49327)
T1 construct: 10 μL hFASN enzyme (full length, 300 ng, purified in house); made in house
Assay: Fatty Acid Synthase (FASN) inhibition scintillation proximity assay
Type: biochemical
Details: for inhibition at 10 µM: read-out: Human FASN % inhibition @ 10 μM, 10 μM test compound; for IC50: read-out: Human FASN pIC50 (converted)
How it was run: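 Compounds at 0.01–30 μM were mixed with 300 ng purified full-length enzyme in 100 mM KH2PO4 pH 7.5, 1 mM DTT. Substrates ³H-acetyl-CoA and malonyl-CoA were then converted, and bead addition stopped the reaction. Signal was normalised to low and high plate controls and fitted by 4-parameter nonlinear regression.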

T1 sequence (P49327 whole entry): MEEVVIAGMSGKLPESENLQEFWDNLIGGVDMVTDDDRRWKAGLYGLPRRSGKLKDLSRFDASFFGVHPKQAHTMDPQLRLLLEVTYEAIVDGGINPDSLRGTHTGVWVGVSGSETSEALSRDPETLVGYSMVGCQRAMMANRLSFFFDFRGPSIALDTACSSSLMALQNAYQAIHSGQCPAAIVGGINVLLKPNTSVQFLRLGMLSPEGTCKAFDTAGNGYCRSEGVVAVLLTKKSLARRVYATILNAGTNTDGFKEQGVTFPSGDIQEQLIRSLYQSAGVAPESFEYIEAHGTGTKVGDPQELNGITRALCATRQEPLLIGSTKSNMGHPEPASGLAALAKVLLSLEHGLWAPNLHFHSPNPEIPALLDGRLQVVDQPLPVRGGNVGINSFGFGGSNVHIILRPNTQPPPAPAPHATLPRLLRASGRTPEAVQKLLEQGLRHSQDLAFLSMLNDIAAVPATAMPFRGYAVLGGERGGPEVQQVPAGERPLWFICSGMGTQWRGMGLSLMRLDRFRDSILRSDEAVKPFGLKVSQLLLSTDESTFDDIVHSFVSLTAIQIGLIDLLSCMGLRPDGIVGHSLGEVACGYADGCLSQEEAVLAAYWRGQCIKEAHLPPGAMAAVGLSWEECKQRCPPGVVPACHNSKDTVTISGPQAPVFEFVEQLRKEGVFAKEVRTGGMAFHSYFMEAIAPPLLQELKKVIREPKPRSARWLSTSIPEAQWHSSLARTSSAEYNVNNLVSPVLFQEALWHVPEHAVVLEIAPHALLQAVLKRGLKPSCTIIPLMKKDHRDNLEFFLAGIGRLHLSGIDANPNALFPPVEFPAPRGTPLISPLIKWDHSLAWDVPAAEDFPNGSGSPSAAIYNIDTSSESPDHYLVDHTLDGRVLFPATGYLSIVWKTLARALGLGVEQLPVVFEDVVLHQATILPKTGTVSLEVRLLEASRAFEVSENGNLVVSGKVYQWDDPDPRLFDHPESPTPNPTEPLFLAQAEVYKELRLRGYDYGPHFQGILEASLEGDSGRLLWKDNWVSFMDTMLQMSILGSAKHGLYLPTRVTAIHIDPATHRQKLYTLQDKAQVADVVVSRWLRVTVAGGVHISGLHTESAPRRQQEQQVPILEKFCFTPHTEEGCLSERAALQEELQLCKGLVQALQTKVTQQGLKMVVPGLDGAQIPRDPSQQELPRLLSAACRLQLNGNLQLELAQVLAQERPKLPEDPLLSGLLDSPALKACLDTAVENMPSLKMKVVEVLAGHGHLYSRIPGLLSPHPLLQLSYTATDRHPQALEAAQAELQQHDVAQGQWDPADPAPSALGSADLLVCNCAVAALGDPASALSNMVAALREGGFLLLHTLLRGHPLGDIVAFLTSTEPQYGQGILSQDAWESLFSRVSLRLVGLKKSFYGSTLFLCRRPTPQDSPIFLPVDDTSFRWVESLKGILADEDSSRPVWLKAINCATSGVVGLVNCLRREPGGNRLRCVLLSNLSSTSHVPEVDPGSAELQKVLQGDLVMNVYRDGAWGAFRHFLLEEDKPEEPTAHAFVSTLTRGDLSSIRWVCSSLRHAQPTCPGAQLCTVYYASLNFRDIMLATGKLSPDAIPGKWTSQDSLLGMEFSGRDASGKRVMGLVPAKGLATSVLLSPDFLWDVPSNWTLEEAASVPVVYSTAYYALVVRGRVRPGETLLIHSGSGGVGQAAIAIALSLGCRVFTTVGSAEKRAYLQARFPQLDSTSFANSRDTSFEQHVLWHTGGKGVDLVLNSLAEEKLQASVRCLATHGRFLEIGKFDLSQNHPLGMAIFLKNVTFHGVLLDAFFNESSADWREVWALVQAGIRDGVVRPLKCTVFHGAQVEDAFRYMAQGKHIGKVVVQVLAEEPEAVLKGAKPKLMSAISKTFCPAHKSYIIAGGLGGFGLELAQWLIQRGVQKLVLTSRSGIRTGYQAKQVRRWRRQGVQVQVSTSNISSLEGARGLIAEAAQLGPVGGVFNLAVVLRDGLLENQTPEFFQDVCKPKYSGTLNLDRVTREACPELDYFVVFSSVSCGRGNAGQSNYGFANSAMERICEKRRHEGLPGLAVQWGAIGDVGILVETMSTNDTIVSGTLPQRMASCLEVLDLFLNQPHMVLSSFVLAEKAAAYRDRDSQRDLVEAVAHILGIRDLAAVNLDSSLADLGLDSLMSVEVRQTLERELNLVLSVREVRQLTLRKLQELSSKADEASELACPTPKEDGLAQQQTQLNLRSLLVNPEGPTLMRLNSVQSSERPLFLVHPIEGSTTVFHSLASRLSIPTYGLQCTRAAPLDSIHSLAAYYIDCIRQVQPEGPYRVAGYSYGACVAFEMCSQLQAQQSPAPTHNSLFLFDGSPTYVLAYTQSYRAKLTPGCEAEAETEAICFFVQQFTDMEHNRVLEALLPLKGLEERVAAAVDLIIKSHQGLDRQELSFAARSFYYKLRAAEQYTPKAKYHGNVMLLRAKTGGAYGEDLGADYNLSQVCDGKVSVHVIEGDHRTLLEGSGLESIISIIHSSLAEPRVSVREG

Compound | inhibition at 10 µM [%] | IC50 [µM] | Human FASN % inhibition @ 10 μM (10 μM test compound, 10 µM) [%] | Human FASN pIC50 (hFASN enzyme, full length, "~" means standard error of the pIC50 is larger than 0.5)
Cc1ccc(-c2ccc(-c3ccc(C4=NC5(CC5)C(=O)N4C[C@H]4CCCN(C(=O)C5CC5)C4)cc3)cc2)cc1 [compound 812, (S)-6-((1-(cyclopropanecarbonyl)piperidin-3-yl)methyl)-5-(4″-methyl[1,1′:4′,1″- terphenyl]-4-yl)-4,6-diazaspiro[2.4]hept-4-en-7-one] | 5 | > 10 | – | –
O=C(C1CC1)N1CCC[C@H](CN2C(=O)C3(CC3)N=C2c2ccc(-c3ccc(-c4cccc(Cl)c4)cc3)cc2)C1 [compound 813, (S)-5-(3″-chloro-[1,1′:4′,1″-tertphenyl]-4-yl)-6-((1-(cyclopropanecarbonyl)piperidin-3-yl)methyl)-4,6-diazaspiro[2.4]hept-4-en-7-one] | 2 | > 10 | – | –
Cn1cc(-c2ccc(-c3ccc(C4=NC5(CC5)C(=O)N4C[C@H]4CCCN(C(=O)C5CC5)C4)cc3)cc2)cn1 [compound 815, (S)-6-((1-(cyclopropanecarbonyl)piperidin-3-yl)methyl)-5-(4′-(1-methyl-1H-pyrazol-4-yl)-[1,1′-biphenyl]-4-yl)-4,6-diazaspiro[2.4]hept-4-en-7-one] | 1 | > 10 | – | –
O=C(C1CC1)N1CCC[C@H](CN2C(=O)C3(CC3)N=C2c2ccc(-c3ccc4sccc4c3)cc2)C1 [compound 817, (S)-5-(4-(benzo[b]thiophen-5-yl)phenyl)-6-((1-(cyclopropanecarbonyl)piperidin-3-yl)methyl)-4,6-diazaspiro[2.4]hept-4-en-7-one] | 1 | > 10 | – | –
O=C(C1CC1)N1CCC[C@H](CN2C(=O)C3(CC3)N=C2c2ccc(-c3ccc4occc4c3)cc2)C1 [compound 818, (S)-5-(4-(benzofuran-5-yl)phenyl)-6-((1-(cyclopropanecarbonyl)piperidin-3-yl)methyl)-4,6-diazaspiro[2.4]hept-4-en-7-one] | 2 | > 10 | – | –
O=C(C1CC1)N1CCC[C@@H](CN2C(=O)C3(CC3)N=C2c2ccc(-c3ccc(-c4cccc(Cl)c4)cc3)cc2)C1 [compound 820, (R)-5-(3″-chloro-[1,1′:4′,1″-terphenyl]-4-yl)-6-((1-(cyclopropanecarbonyl)piperidin-3-yl)methyl)-4,6-diazaspiro[2.4]hept-4-en-7-one] | 33 | > 10 | – | –
Cc1ccc(-c2ccc(-c3ccc(C4=NC5(CC5)C(=O)N4C[C@@H]4CCCN(C(=O)C5CC5)C4)cc3)cc2)cc1 [compound 821, (R)-6-((1-(cyclopropanecarbonyl)piperidin-3-yl)methyl)-5-(4″-methyl-[1,1′:4′,1″- terphenyl]-4-yl)-4,6-diazaspiro[2.4]hept-4-en-7-one] | 7 | > 10 | – | –
Cn1cc(-c2ccc(-c3ccc(C4=NC5(CC5)C(=O)N4C[C@@H]4CCCN(C(=O)C5CC5)C4)cc3)cc2)cn1 [compound 823, (R)-6-((1-(cyclopropanecarbonyl)piperidin-3-yl)methyl)-5-(4′-(1-methyl-1H-pyrazol-4-yl)-[1,1′-biphenyl]-4-yl)-4,6-diazaspiro[2.4]hept-4-en-7-one] | 31 | > 10 | – | –
O=C(C1CC1)N1CCC(CN2C(=O)C3(CC3)N=C2c2ccc(-c3ccc(C(F)(F)F)cc3)cc2)CC1 [compound 859, 6-((1-(cyclopropanecarbonyl)piperidin-4-yl)methyl)-5-(4′-(trifluoromethyl)-[1,1′-biphenyl]-4-yl)-4,6-diazaspiro[2.4]hept-4-en-7-one] | – | – | 11 | <5
Cn1ccc2cc(-c3ccc(C4=NC5(CC5)C(=O)N4CC4CN(C(=O)C5CC5)C4)c(F)c3)ccc21 [compound 870, 6-((1-(cyclopropanecarbonyl)azetidin-3-yl)methyl)-5-(2-fluoro-4-(1-methy7l-1H-indol-5-yl)phenyl)-4,6-diazaspiro[2.4]hept-4-en-7-one] | – | 0.0269 | – | –
O=C(C1CC1)N1CC(CN2C(=O)C3(CC3)N=C2c2ccc(-c3ccc(Br)cn3)cc2)C1 [compound 887, 5-(4-(5-bromopyridin-2-yl)phenyl)-6-((1-(cyclopropanecarbonyl)azetidin-3-yl)methyl)-4,6-diazaspiro[2.4]hept-4-en-7-one] | 73 | 4.07 | – | –
CS(=O)(=O)N1CC(CN2C(=O)C3(CCOCC3)N=C2c2ccc(-c3ccc4occc4c3)cc2)C1 [compound 888, 2-(4-(benzofuran-5-yl)phenyl)-3-((1-(methylsulfonyl)azetidin-3-yl)methyl)-8-oxa-1,3-diazaspiro[4.5]dec-1-en-4-one] | 1 | > 10 | – | –
COC(=O)N1CC[C@@H](CN2C(=O)C3(CCOCC3)N=C2c2ccc(-c3ccc4occc4c3)cc2)C1 [compound 889, (S)-methyl 3-((2-(4-(benzofuran-5-yl)phenyl)-4-oxo-8-oxa-1,3-diazaspiro[4.5]dec-1-en-3-yl)methyl)pyrrolidin-1-carboxylate] | 44 | > 10 | – | –
Cn1ncc2cc(-c3ccc(C4=NC5(CCOCC5)C(=O)N4C[C@@H]4CCN(C(=O)C(F)(F)F)C4)cc3)ccc21 [compound 890, (R)-2-(4-(1-methyl-1H-indazol-5-yl)phenyl)-3-((1-(2,2,2-trifluoroacetyl)pyrrolidin-3-yl)methyl)-8-oxa-1,3-diazaspiro[4.5]dec-1-en-4-one] | 37 | > 10 | – | –

Other lines, results leading:

inhibition at 10 µM [%] | IC50 [µM] | Human FASN % inhibition @ 10 μM (10 μM test compound, 10 µM) [%] | Human FASN pIC50 (hFASN enzyme, full length, "~" means standard error of the pIC50 is larger than 0.5) | Compound
35 | > 10 | – | – | CC(C)n1cc2cc(-c3ccc(C4=NC5(CC5)C(=O)N4C[C@@H]4CCN(C(=O)C5CC5)C4)cc3)ccc2n1 [compound 811, (R)-6-((1-(cyclopropanecarbonyl)pyrrolidin-3-yl)methyl)-5-(4-(2-isopropyl-2H-indazol-5-yl)phenyl)-4,6-diazaspiro[2.4]hept-4-en-7-one]
39 | > 10 | – | – | Cc1cc(C2=NC3(CC3)C(=O)N2CC2CN(C(=O)C3CC3)C2)ccc1-c1ccc2oc(C)c(C)c2c1 [compound 814, 6-((1-(cyclopropanecarbonyl)azetidin-3-yl)methyl)-5-(4-(2,3-dimethylbenzofuran-5-yl)-3-methylphenyl)-4,6-diazaspiro[2.4]hept-4-en-7-one]
4 | > 10 | – | – | O=C(C1CC1)N1CCC[C@H](CN2C(=O)C3(CC3)N=C2c2ccc(-c3ccc4[nH]ncc4c3)cc2)C1 [compound 816, (S)-5-(4-(1H-indazol-5-yl)phenyl)-6-((1-(cyclopropanecarbonyl)piperidin-3-yl)methyl)-4,6-diazaspiro[2.4]hept-4-en-7-one]
10 | – | – | – | Cn1ncc2cc(-c3ccc(C4=NC5(CC5)C(=O)N4C[C@H]4CCCN(C(=O)C5CC5)C4)cc3)ccc21 [compound 819, (S)-6-((1-(cyclopropanecarbonyl)piperidin-3-yl)methyl)-5-(4-(1-methyl-1H-indazol-5-yl)phenyl)-4,6-diazaspiro[2.4]hept-4-en-7-one]
25 | > 10 | – | – | Cc1cc(-c2cnc3c(c2)OCCN3C)ccc1C1=NC2(CCCC2)C(=O)N1C[C@@H]1CCN(C(=O)C2CC2)C1 [compound 822, (R)-3-((1-(cyclopropanecarbonyl)pyrrolidin-3-yl)methyl)-2-(2-methyl-4-(4-methyl-3,4-dihydro-2H-pyrido[3,2-b][1,4]oxazin-7-yl)phenyl)-1,3-diazaspiro[4.4]non-1-en-4-one]
4 | > 10 | – | – | O=C(C1CC1)N1CC[C@@H](CN2C(=O)C3(CCCC3)N=C2c2ccc(-c3ccnc(N4CCNCC4)c3)cc2)C1 [compound 828, (R)-3-((1-(cyclopropanecarbonyl)pyrrolidin-3-yl)methyl)-2-(4-(2-(piperazin-1-yl)pyridin-4-yl)phenyl)-1,3-diazaspiro[4.4]non-1-en-4-one]
7 | > 10 | – | – | CN1CCN(c2cc(-c3ccc(C4=NC5(CCCC5)C(=O)N4C[C@@H]4CCN(C(=O)C5CC5)C4)cc3)ccn2)CC1 [compound 829, (R)-3-((1-(cyclopropanecarbonyl)pyrrolidin-3-yl)methyl)-2-(4-(2-(4-methylpiperazin-1-yl)pyridin-4-yl)phenyl)-1,3-diazaspiro[4.4]non-1-en-4-one]
52 | > 10 | – | – | Cc1cc(-c2cncc(Cl)c2)ccc1C1=NC2(CCCC2)C(=O)N1C[C@@H]1CCN(C(=O)C2CC2)C1 [compound 855, (R)-2-(4-(5-chloropyridin-3-yl)-2-methylphenyl)-3-((1-(cyclopropanecarbonyl)pyrrolidin-3-yl)methyl)-1,3-diazaspiro[4.4]non-1-rn-4-one]
44 | > 10 | – | – | Nc1cncc(-c2ccc(C3=NC4(CC4)C(=O)N3C[C@@H]3CCN(C(=O)C4CC4)C3)cc2)c1 [compound 867, (R)-5-(4-(5-aminopyridi9n-3-yl)phenyl)-6-((1-(cyclopropanecarbonyl)pyrrolidin-3-yl)methyl)-4,6-diazaspiro[2.4]hept-4-en-7-one]
– | 0.0468 | – | – | Cc1cc2cc(-c3ccc(C4=NC5(CC5)C(=O)N4CC4CN(C(=O)C5CC5)C4)c(F)c3)ccc2[nH]1 [compound 869, 6-((1-(cyclopropanecarbonyl)azetidin-3-yl)methyl)-5-(2-fluoro-4-(2-methyl-1H-indol-5-yl)phenyl)-4,6-diazaspiro[2.4]hept-4-en-7-one]
79 | 1.91 | – | – | CC(=O)c1ccc(-c2ccc(C3=NC4(CCCC4)C(=O)N3C[C@@H]3CCN(C(=O)C4CC4)C3)c(F)c2)cc1 [compound 886, (R)-2-(4′-acetyl-3-fluoro-[1,1′-biphenyl]-4-yl)-3-((1-(cyclopropanecarbonyl)pyrrolidin-3-yl)methyl)-1,3-diazaspiro[4.4]non-1-en-4-one]
